The subject of test [1] is P-selectin. Description: P-selectin translocation (Weibel-Palade body exocytosis) in irradiated HUVEC with enzyme inhibitors, immunofluorescence. The format is cell-based, human. The following applies: inhibitor added prior to irradiation, 10 Gy. From the text: (§1) The initial step in discerning the potential role of various signal transduction pathways is to add enzyme inhibitors prior to x-radiation. Exocytosis of Weibel-Palade bodies is an active process requiring the translocation of cytoplasmic granules. Previous studies have shown that intracellular signal transduction required for Weibel Palade body translocation involves influx of calcium and protein kinase C activation (calcium, PKC). To determine whether these signaling pathways participate in radiation-mediated Weibel-Palade body exocytosis, the inventors added the intracellular calcium chelator BAPTA and the protein kinase C inhibitor, calphostin, to HUVEC cells prior to irradiation. Cells were then treated with 10 Gy and immunofluorescence was used to localize P-selectin. […] Conversely, the tyrosin kinase inhibitor, herbimycin A, had no effect on Weibel-Palade exocytosis. To determine whether calcium chelation and protein kinase inhibition prevent all molecular responses to ionizing radiation, the inventors' added BAPTA and calphostin prior to radiation-induction of ICAM-1 expression. BAPTA and calphostin had no effect on x-ray induction of ICAM-1. However, herbimycin A and the NFkB inhibitor ALLN attenuated x-ray induction of ICAM-1.

Test [2] deals with ICAM-1. Put plainly: X-ray induction of ICAM-1 expression with enzyme inhibitors. Format: cell-based, human. The following applies: inhibitor added prior to irradiation.
Description: as §1

Test [3] relates to von Willebrand Factor. The following applies: Vischer et al., 1995; cited from earlier work.

The values that follow come from patent publication EP0986401B1, “P-SELECTIN TRANSLOCATION TO VASCULAR EPITHELIAL LUMEN BY IONIZING RADIATION” (ARCH DEVELOPMENT CORPORATION, priority 1997, dated 1998).

For `O=C(O)CN(CC(=O)O)c1ccccc1OCCOc1ccccc1N(CC(=O)O)CC(=O)O` [BAPTA], the “P-selectin translocation to the cell membrane (Weibel-Palade exocytosis)” value in test [1] was “attenuation”. For the same molecule, in test [2], the “x-ray induction of ICAM-1” value is recorded as “no effect”. Also, the “superoxide induced von Willebrand Factor exocytosis” value in test [3] is listed as “inhibited”.
